Assay results published in patent publication US20250075278A1, “EPIGENTIC REGULATION AND CO-TARGETING APPROACHES OF PSMA IN PROSTRATE CANCER” (Fred Hutchinson Cancer Center, priority 2023, published 2025).
Entries after “also recorded” stand apart in the source; their conditions may differ.

Key:
[1] = tested on: DU145, LAPC4, and LuCaP 35CR CL; experiment: PSMA protein expression in cell line models treated with epigenetic modifiers (flow cytometry and fluorescence immunocytochemistry); assay type: cell-based; conditions: for PSMA expression after HDACi treatment: in vitro and in vivo
Description: Cell lines and in vitro experiments. […] All drugs were diluted in DMSO.
To this end, 3 cell line models (DU145, LAPC4, and LuCaP 35CR CL) were treated with the DNMTi decitabine and pan-HDACi (panobinostat, CUDC-907, vorinostat) and applied 2 orthogonal approaches (flow cytometry and fluorescence immunocytochemistry) and 2 separate monoclonal antibodies (3E6 and LNI-17) to measure PSMA protein expression.

LuCaP 35CR xenografts = experiment: PSMA IHC of LuCaP 35CR PDX tumors grown in treated mice; assay type: in vivo; conditions: LuCaP 35CR PDX in castrated CB17SCID mice, 75 mg/kg/day, 21 days, vs 30% Captisol control
Description: In vivo experiments. All surgical procedures were performed under isoflurane anesthesia. LuCaP 35CR tumors (1 mm3) were surgically implanted s.c. into castrated male CB17SCID mice (The Jackson Laboratory) (59). When tumors reached a volume between 150 mm3 and 200 mm3, mice were administered CUDC-907 (Curis Inc.), a combined pan-HDAC/PI3K inhibitor dissolved in 30% captisol (Thermo Fisher Scientific). Treated mice received 75 mg/kg/day for 5 days, followed by 2 days off treatment, repeated for a total of 21 days or until the diameter of the tumor reached 2 cm. The same volume of 30% captisol, in the same manner as described above, was used to treat the vehicle group. […]
IHC staining. […] Immunocomplexes were detected using PV poly-HRP anti-mouse IgG (Leica Microsystems, PV6114) with DAB as the chromogen. […] Immunocomplexes were detected using the Biotin XX Tyramide SuperBoost kit (Invitrogen, B40931) per manufacturer's protocol with DAB as the chromogen. […] Immunocomplexes were detected using Tyramide Signal Amplification system from Thermo Fisher Scientific. […] Membranous PSMA expression was scored in a blinded manner by 2 pathologists, whereby the optical density level (“0” for no brown color, “1” for faint and fine brown chromogen deposition, and “2” for prominent chromogen deposition) was multiplied by the percentage of cells at each staining level, resulting in a total score range of 0-200. […]

Structure (SMILES) | PSMA expression after HDACi treatment [1] | PSMA re-expression (density plot, FIG. 5H) ([1]; 10 μM, cell line not stated) | PSMA expression in tumors (IHC, PSMA-positive cells) (LuCaP 35CR xenografts)
O=C(CCCCCCC(=O)Nc1ccccc1)NO [vorinostat] | significant upregulation of PSMA expression |  | 
O=C(CNc1cccc2c1C(=O)N(C1CCC(=O)NC1=O)C2=O)NCCCOc1ccc(NC(=O)c2ccc(CN(C(=O)c3ccc4c(c3)OCC(=O)N4)C3CC3)cc2)nc1 (stereo not shown) [MS159] |  | PSMA re-expression | 
COc1ccc(-c2nc(N3CCOCC3)c3sc(CN(C)c4ncc(C(=O)NO)cn4)cc3n2)cn1 [CUDC-907] | significant upregulation of PSMA expression |  | significantly increased PSMA expression; also recorded: enhanced PSMA expression
